Test results from patent US9499509B2, “Dihydrochalcone derivatives and their use as antibiotic agents” (UNIVERSITÉ DU QUÉBEC À CHICOUTIMI, priority 2012, dated 2016).
Converted amounts (≈) assume the structure as drawn. Read-outs that look alike come from different tables or passages of the source.

Columns and labels:
[1] = system: Streptococcus pneumoniae; assay: Antibiotic assay (resazurin, Example 1), Streptococcus pneumoniae; type: cell-based; details: for IC50 / MIC: Streptococcus pneumoniae; for IC50: read-out: IC50; for MIC: read-out: Minimum Inhibitory Concentration (MIC)
Method: (§1) Bacteria Strain. […] The MRSA were obtained as further described below.
(§2) Antibiotic agents. Cyprofloxacin and erythromycin were provided by Sigma-Aldrich. Gentamicin sulfate and vancomycin hydrochloride were provided by Calbiochem.
(§3) Five additional strains were tested: Streptococcus pneumoniae, Streptococcus agalactiae, Streptococcus pyogenes, Enterococcus faecalis and Corynebacterium jeikeium.

[2] = system: methicillin-resistant Staphylococcus aureus (MRSA) strains; assay: Antibiotic assay (resazurin, Example 1), MRSA strains; type: cell-based
Source text: as §1, §2
Isolation and identification of methicillin-resistant Staphylococcus aureus (MRSA) strains. From March 2007 to March 2008, 35 screening swabs from nares (n=31), throat (n=3), Groin pus (n=1) were obtained from patients hospitalized at Chicoutimi hospital. Identification of S. aureus was performed using the Slidex Staph-Kit (bioMerieux Vitek, Inc., Hazelwood, Mo.) according to the manufacturer's instructions. Quality control was performed with MRSA strain ATCC 43300 and S. aureus strain ATCC 25923. In addition, S. aureus profile was determined with API Staph test strip with bacterial suspension of saline McFarland of 0.5 (bioMerieux, Durham, N.C.) according to the manufacturer's protocol. API Staph strips were held for 24 h before the results were read. A latex agglutination (SLIDEX) test detecting methicilin resistance in Staphylococci based on the production of low-affinity PBP2a, which is encoded by the mecA gene was performed on all strains. An antibiogram was also performed to confirm the identification of MRSA strains using disk diffusion test.
Antibiotic susceptibility testing using disk diffusion method. The antimicrobial activity of different classes of antibiotics of the potential MRSA was determined by diffusion method (Kirby-Bauer) as described by NCCLS. The antibiotics tested included: penicillin (10 units), amoxicillin/clavulanic acid (20/10 μg), ciprofloxacin (5 μg), moxifloxacin (5 μg), levofloxacin (5 μg), clindamycin (15 μg), erythromycin (15 μg), cefoxitin (30 μg), linezolid (30 μg), trimethoprim/sulfomethoxazole (1.25/23.75 μg), rifampicin (5 μg), gentamicin (10 μg) and vancomycin (30 μg). The agar medium had pH 7.2 to 7.4 before inoculing potentiel MRSA. The antibiotics were maintained at 8° C. or lower −14° C. according to manufacturer's recommendations. The pure culture was inoculated on a non-selective plate for 18-24 h. Each colony was collected with a wire loop and transfered the growth to a tube containing 4 to 5 mL of a tryptic-soy broth. The inoculum density was standarized with BaSO4 using 0.5 McFarland standard. All strains were incubated at 37° C. until it achieves or exceeds the turbidity of 0.5 McFarland standard. Inoculation of the dried surface (Muller-Hinton agar plate) by streaking the swab over the entire sterile agar surface. This procedure was repeated two more times. After 15 min, the appropriate disk were applied on the surface with a sterile forceps. The inverted plates was placed in a incubator at 37° C./air/16 to 18 h or 24 h for vancomycin. The inhibition zones were measured with a millimetric ruler. Interpretation of zone sizes by references of the manufacturer. Quality control organisms used were ATCC strains number 25923.
MRSA. Ten (10) strains of MRSA obtained as described above were tested along with an S. aureus wild type (WT) strain (ATCC25923).

[3] = system: S. epidermidis; assay: Antibiotic assay (resazurin, Example 1), S. epidermidis strains; details: Staphylococcus epidermidis
[4] = system: Streptococcus agalactiae; assay: Antibiotic assay (resazurin, Example 1), Streptococcus agalactiae; type: cell-based; details: for IC50: read-out: IC50
Method: as §1, §2, §3

[5] = system: Enterococcus faecalis; assay: Antibiotic assay (resazurin, Example 1), Enterococcus faecalis; type: cell-based; details: for IC50: read-out: IC50
Method: as §1, §2, §3

[6] = system: Streptococcus pyogenes; assay: Antibiotic assay (resazurin, Example 1), Streptococcus pyogenes; type: cell-based; details: Streptococcus pyogenes; for IC50: read-out: IC50; for MIC: read-out: Minimum Inhibitory Concentration (MIC)
Method: as §1, §2, §3

[7] = system: Corynebacterium jeikeium; assay: Antibiotic assay (resazurin, Example 1), Corynebacterium jeikeium; type: cell-based; details: Corynebacterium jeikeium, Coryne. jeikeium 14139
Method: as §1, §2, §3

[8] = system: S. aureus; assay: Antibiotic assay (resazurin, Example 1), S. aureus strains of Table 3; type: cell-based, Staphylococcus aureus; details: for IC50: read-out: IC50; for MIC: read-out: Minimum Inhibitory Concentration (MIC)
Source text: as §1, §2

[9] = Staphylococcus aureus, S. aureus 14094

Work on `O=C(O)c1cn(C2CC2)c2cc(N3CCNCC3)c(F)cc2c1=O` [Ciprofloxacin, reference compound] yielded an IC50 ([1]; Strep. pneumoniae 14070) of over 200 µM, an MIC ([1]; Strep. pneumoniae 14070) of over 200 µM and an IC50 ([1]; Strep. pneumoniae 14112) of 63 ± 6 µM. For the same compound, the MIC ([1]; Strep. pneumoniae 14112) was 200 µM (≈ 66.3 µg/mL), the IC50 ([1]; Strep. pneumoniae 14138) was over 200 µM and the MIC ([1]; Strep. pneumoniae 14138) was over 200 µM. For the same compound, the IC50 ([1]; Strep. pneumoniae 14144) was over 200 µM, the MIC ([1]; Strep. pneumoniae 14144) was over 200 µM and the IC50 ([1]; Strep. pneumoniae 14148) was 56 ± 6 µM. For the same compound, the MIC ([1]; Strep. pneumoniae 14148) was 200 µM (≈ 66.3 µg/mL), the “activity against Streptococcus pneumoniae strain 14144” value ([1]; in words) was “not active” and the “Minimum Inhibitory Concentration (MIC)” value ([2]; MRSA 1) was “(>186) μM”. The “Minimum Inhibitory Concentration (MIC)” value ([2]; MRSA 3) was “(>186) μM”, the “Minimum Inhibitory Concentration (MIC)” value ([2]; MRSA 4) was “(>186) μM” and the “Minimum Inhibitory Concentration (MIC)” value ([2]; MRSA 5) was “(>186) μM”. The “Minimum Inhibitory Concentration (MIC)” value ([2]; MRSA 6) was “(>186) μM”, the “Minimum Inhibitory Concentration (MIC)” value ([2]; MRSA 7) was “(>186) μM” and the “Minimum Inhibitory Concentration (MIC)” value ([2]; MRSA 8) was “(>186) μM”. The “Minimum Inhibitory Concentration (MIC)” value ([2]; MRSA 9) was “(>186) μM”, the “Minimum Inhibitory Concentration (MIC)” value ([2]; MRSA 10) was “(>186) μM” and the IC50 ([2]; Staphylococcus aureus, MRSA, MRSA1, read-out: IC50) was 102 ± 6 µM. For the same compound, the IC50 ([2]; Staphylococcus aureus, MRSA, MRSA2, read-out: IC50) was 156 ± 11 µM, the MIC ([2]; Staphylococcus aureus, MRSA, MRSA2, read-out: Minimum Inhibitory Concentration (MIC)) was over 186 µM and the IC50 ([2]; Staphylococcus aureus, MRSA, MRSA3, read-out: IC50) was over 186 µM. For the same compound, the IC50 ([2]; Staphylococcus aureus, MRSA, MRSA4, read-out: IC50) was 134 ± 7 µM, the IC50 ([2]; Staphylococcus aureus, MRSA, MRSA5, read-out: IC50) was 109 ± 4 µM and the IC50 ([2]; Staphylococcus aureus, MRSA, MRSA6, read-out: IC50) was 131 ± 9 µM. The IC50 ([2]; Staphylococcus aureus, MRSA, MRSA7, read-out: IC50) was 128 ± 9 µM, the IC50 ([2]; Staphylococcus aureus, MRSA, MRSA8, read-out: IC50) was 119 ± 9 µM and the IC50 ([2]; Staphylococcus aureus, MRSA, MRSA9, read-out: IC50) was 106 ± 11 µM. The IC50 ([2]; Staphylococcus aureus, MRSA, MRSA10, read-out: IC50) was 122 ± 16 µM, the IC50 ([2]; Staphylococcus aureus, MRSA, all MRSA strains, read-out: IC50 values against the MRSA strains) was 100 to 150 µM and the IC50 ([3]; S. epidermidis 14069) was 31 ± 2 µM. It also gave an IC50 ([3]; S. epidermidis 14085) of 26.3 ± 0.8 µM, an IC50 ([3]; S. epidermidis 14093) of under 1.56 µM and an IC50 ([3]; S. epidermidis 14134) of 44 ± 1 µM. For the same compound, the IC50 ([3]; S. epidermidis 14143) was 80 ± 7 µM, the MIC ([3]; read-out: Minimum Inhibitory Concentration (MIC), S. epidermidis 14069) was over 200 µM and the MIC ([3]; read-out: Minimum Inhibitory Concentration (MIC), S. epidermidis 14085) was over 200 µM. It also gave an MIC ([3]; read-out: Minimum Inhibitory Concentration (MIC), S. epidermidis 14093) of 77.1 µM (≈ 25.5 µg/mL), an MIC ([3]; read-out: Minimum Inhibitory Concentration (MIC), S. epidermidis 14134) of over 200 µM and an MIC ([3]; read-out: Minimum Inhibitory Concentration (MIC), S. epidermidis 14143) of over 200 µM. For the same compound, the “Minimum Inhibitory Concentration (MIC)” value ([4]; Strep. agalactiae 14151) was “(>200) μM”, the “Minimum Inhibitory Concentration (MIC)” value ([4]; Strep. agalactiae 14153) was “(>200) μM” and the IC50 ([4]; Streptococcus agalactiae, Strep. agalactiae 14150) was 138 ± 10 µM. For the same compound, the MIC ([4]; Streptococcus agalactiae, Strep. agalactiae 14150, read-out: Minimum Inhibitory Concentration (MIC)) was over 200 µM, the IC50 ([4]; Streptococcus agalactiae, Strep. agalactiae 14151) was over 200 µM and the IC50 ([4]; Streptococcus agalactiae, Strep. agalactiae 14153) was 190 ± 10 µM. For the same compound, the “Minimum Inhibitory Concentration (MIC)” value ([5]; Ent. Faecalis 14115) was “(>200) μM”, the IC50 ([5]; Enterococcus faecalis, Ent. Faecalis 14078) was 15 ± 2 µM and the MIC ([5]; Enterococcus faecalis, Ent. Faecalis 14078, read-out: Minimum Inhibitory Concentration (MIC)) was over 200 µM. For the same compound, the IC50 ([5]; Enterococcus faecalis, Ent. Faecalis 14115) was over 200 µM, the “activity against Enterococcus faecalis 14115 strain” value ([5]; in words) was “not active” and the IC50 ([6]; Strep. pyogenes 14149) was 43 ± 2 µM. For the same compound, the MIC ([6]; Strep. pyogenes 14149) was 169 µM (≈ 56 µg/mL), the IC50 ([6]; Strep. pyogenes 14152) was 0.6 ± 1 µM and the MIC ([6]; Strep. pyogenes 14152) was 37.4 µM (≈ 12.4 µg/mL). The IC50 ([7]; read-out: IC50) was 1.42 ± 0.07 µM, the MIC ([7]; read-out: Minimum Inhibitory Concentration (MIC)) was 16.4 µM (≈ 5.43 µg/mL) and the IC50 ([8]; S. aureus 14108) was under 1.56 µM. It also gave an IC50 ([8]; S. aureus 14118) of under 1.56 µM, an IC50 ([8]; S. aureus 14154) of under 1.56 µM and an IC50 [8, 9] of under 1.56 µM. It also gave an MIC [8, 9] of 87.6 µM (≈ 29 µg/mL), an MIC ([8]; Staphylococcus aureus, S. aureus 14108) of 66.8 µM (≈ 22.1 µg/mL) and an MIC ([8]; Staphylococcus aureus, S. aureus 14118) of 65.1 µM (≈ 21.6 µg/mL). For the same compound, the MIC ([8]; Staphylococcus aureus, S. aureus 14154) was 25.1 µM (≈ 8.32 µg/mL).
